Results as given in ChEMBL document CHEMBL1201862, “PubChem BioAssay data set” (2004).
Active and inactive are the calls of the source.

Tests used:
cells = format: functional
Large T antigen = Large T antigen (Simian virus 40, UniProt P03070); format: functional, Betapolyomavirus macacae;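 note: Confirmatory-stage PubChem screen for compounds that inhibit SV40 T antigen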
[1] = HeLa cell cytotoxicity, dose response, cytotoxicity control for MgcRacGAP inhibitor project (AID 624300); format: functional
[2] = molecular target: T1, Heat shock factor protein 1 (Mus musculus, UniProt P38532); test: HSF1 potentiators in luciferase reporter cells, confirmation, cell-based, NIH3T3, luminescence, dose retest (AID 435004); format: functional;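 note: stress induced by proteasome inhibitor MG132 added 30 min after compound; luciferase reporter driven by HSF1 response element in NIH3T3 cells; actives raise luminescence as potentiators of the MG132 stress response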
T1 sequence (P38532 whole entry): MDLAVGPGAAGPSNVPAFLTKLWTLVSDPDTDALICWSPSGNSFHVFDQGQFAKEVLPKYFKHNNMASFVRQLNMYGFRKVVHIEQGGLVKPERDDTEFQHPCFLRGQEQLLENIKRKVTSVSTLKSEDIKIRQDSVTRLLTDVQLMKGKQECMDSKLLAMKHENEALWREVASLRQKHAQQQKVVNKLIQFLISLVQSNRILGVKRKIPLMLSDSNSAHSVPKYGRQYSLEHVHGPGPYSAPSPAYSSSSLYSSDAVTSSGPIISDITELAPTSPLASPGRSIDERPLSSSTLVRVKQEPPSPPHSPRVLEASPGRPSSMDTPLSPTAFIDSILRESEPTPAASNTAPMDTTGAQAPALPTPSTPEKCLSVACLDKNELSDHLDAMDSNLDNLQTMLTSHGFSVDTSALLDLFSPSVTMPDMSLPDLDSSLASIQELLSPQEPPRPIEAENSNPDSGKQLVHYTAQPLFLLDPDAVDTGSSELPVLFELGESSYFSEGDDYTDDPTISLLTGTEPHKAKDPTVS

[3] = molecular target: T2, High affinity choline transporter 1 (Homo sapiens, UniProt Q9GZV3); test: CHT inhibitors, dose response, cell-based, 5-point CRC, membrane potential dye (AID 504840); format: functional
T2 sequence (Q9GZV3 whole entry): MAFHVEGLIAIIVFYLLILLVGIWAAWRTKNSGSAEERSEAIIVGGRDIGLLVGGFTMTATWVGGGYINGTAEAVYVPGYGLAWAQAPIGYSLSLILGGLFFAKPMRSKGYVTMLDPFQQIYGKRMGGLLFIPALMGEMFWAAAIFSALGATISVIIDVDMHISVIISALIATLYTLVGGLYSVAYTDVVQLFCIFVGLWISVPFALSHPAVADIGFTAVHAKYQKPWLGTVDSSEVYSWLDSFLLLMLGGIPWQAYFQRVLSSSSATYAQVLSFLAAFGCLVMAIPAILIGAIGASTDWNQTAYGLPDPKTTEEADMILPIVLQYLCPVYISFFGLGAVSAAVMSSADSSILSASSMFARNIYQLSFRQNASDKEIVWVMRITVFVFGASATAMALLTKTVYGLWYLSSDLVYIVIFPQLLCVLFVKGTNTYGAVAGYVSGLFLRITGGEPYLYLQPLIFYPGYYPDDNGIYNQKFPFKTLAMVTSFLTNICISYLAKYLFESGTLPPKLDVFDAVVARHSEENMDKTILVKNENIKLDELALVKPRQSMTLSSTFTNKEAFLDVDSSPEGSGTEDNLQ

[4] = molecular target: T3, Ubiquitin-conjugating enzyme E2 N (Homo sapiens, UniProt P61088); format: functional;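 note: Dose-response confirmation in a TR-FRET assay detecting UBC13-driven polyubiquitin chain formation, inhibition measured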
T3 sequence (P61088 whole entry): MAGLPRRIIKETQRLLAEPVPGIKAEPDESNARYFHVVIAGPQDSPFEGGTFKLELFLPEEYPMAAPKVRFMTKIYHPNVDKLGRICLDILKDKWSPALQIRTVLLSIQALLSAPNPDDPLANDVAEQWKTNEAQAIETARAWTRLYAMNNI

Cytochrome P450 2C9 = Cytochrome P450 2C9 (Homo sapiens, UniProt P11712)
[5] = molecular target: Heat shock protein HSP 90-alpha (Homo sapiens, UniProt P07900); format: functional, organism-based
[6] = inhibitors of intracellular T. cruzi replication, confirmation, NIH3T3 host cells, beta-gal luminescence (AID 2044); format: functional, cell-based;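 note: intracellular parasites grown in NIH/3T3 mouse fibroblasts as host cells; luminescent beta-galactosidase reporter signal from transgenic T. cruzi replicating inside host cells; inhibitors lower the luminescence signal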
[7] = cytotoxicity toward NIH3T3 fibroblasts, dose response, counter-screen, cell-based, ATP luminescence, mouse fibroblasts (AID 2010); format: functional;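 note: cells exposed to compound for about 90 hours before reading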
[8] = molecular target: T4, Polyadenylate-binding protein 1 (Homo sapiens, UniProt P11940); test: PABP1 MLLE–PAM2 interaction inhibitors, dose response, miRNA deadenylation inhibitor project, biochemical, fluorescence polarization, Cy5-PAM2 peptide, secondary (AID 602260); format: functional; settings: read-out: IC50_Mean
[9] = molecular target: T4, Polyadenylate-binding protein 1; test: PABP1 MLLE–PAM2 binding inhibitor potency, dose response, biochemical, fluorescence polarization, FITC-PAM2 peptide (AID 602259); format: functional; settings: read-out: IC50_Mean

Large T antigen, sequence (P03070 whole entry): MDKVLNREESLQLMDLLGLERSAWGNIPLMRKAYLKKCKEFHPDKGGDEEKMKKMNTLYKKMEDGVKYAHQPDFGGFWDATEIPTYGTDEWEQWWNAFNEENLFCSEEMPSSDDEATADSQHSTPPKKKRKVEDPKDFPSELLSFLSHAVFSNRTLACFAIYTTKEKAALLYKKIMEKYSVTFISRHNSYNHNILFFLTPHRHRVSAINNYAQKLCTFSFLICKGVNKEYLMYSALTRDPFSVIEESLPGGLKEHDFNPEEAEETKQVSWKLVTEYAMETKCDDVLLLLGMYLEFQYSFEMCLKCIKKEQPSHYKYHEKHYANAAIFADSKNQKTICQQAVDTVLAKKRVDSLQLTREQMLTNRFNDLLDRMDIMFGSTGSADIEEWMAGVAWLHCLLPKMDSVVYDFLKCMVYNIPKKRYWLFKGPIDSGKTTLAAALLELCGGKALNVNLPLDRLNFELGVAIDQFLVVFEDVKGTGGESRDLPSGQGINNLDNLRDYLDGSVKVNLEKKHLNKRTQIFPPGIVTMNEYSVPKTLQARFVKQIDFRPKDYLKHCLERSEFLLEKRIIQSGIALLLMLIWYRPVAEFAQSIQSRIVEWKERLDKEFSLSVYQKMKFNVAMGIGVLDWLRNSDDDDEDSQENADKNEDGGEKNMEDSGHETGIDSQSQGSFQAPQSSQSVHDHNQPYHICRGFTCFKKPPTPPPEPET
T4 sequence (P11940 whole entry): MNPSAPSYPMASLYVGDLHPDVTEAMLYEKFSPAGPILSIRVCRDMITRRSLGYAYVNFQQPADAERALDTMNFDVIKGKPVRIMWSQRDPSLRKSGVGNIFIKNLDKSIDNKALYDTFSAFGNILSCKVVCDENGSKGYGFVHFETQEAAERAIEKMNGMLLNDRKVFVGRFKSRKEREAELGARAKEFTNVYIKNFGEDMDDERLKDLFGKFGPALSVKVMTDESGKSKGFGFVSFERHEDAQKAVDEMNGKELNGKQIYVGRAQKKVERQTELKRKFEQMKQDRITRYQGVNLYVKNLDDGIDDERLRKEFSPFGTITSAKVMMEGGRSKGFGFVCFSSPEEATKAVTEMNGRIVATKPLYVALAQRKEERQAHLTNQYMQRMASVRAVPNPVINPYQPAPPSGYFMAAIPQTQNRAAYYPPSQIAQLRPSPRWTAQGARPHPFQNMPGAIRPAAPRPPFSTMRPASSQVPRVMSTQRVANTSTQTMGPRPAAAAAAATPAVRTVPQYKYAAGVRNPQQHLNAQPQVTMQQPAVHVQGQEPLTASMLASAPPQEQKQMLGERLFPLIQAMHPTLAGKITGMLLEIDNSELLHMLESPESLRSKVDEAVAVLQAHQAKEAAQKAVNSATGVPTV
Cytochrome P450 2C9, sequence (P11712 whole entry): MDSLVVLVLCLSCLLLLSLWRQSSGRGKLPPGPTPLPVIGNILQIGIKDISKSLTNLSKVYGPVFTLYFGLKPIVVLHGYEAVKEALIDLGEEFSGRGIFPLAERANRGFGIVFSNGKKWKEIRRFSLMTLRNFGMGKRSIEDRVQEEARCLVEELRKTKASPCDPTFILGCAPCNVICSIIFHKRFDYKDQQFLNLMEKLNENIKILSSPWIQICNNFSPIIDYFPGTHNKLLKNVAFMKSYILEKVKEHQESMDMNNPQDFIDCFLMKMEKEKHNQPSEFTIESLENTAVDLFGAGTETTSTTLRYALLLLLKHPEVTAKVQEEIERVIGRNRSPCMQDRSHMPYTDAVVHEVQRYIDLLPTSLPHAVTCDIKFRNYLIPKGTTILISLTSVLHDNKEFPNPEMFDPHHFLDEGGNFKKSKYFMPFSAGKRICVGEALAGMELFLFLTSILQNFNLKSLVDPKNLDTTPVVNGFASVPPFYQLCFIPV

SMILES: CS(=O)(=O)Nc1cccc2cccnc12
- IC50 (cells): 2.87 µM (active)

SMILES: CC(C)c1ccc(C2CC(=O)N3CN(C)CSC3=C2C#N)cc1 (configuration not stated)
- IC50 (Large T antigen): 54.9 µM (active)

SMILES: Cn1c(-c2cccc([N+](=O)[O-])c2)cnc1NCc1cccc([N+](=O)[O-])c1
- CC50 [1]: 100 µM (active)

SMILES: CCCCOc1ccc(C(=O)N/N=C/c2c[nH]nc2-c2ccc(OC)c(OC)c2)cc1
- EC50 [2]: > 260 µM (inactive)

SMILES: Cc1ccc(S(=O)(=O)N2[C@@H](c3ccc(Cl)cc3)C(C(=O)O)=CC[C@H]2c2ccc(Cl)cc2)cc1
- IC50 [3]: 5.01 µM (active)
- IC50 (Large T antigen): > 100 µM (active)

SMILES: C/C(=N\NC(=O)Cn1cc([N+](=O)[O-])cn1)c1ccc(O)cc1
- IC50 (Large T antigen): 54.5 µM (active)

SMILES: CCCCN=C(S)NNC(=O)c1csc2ccccc12
- EC50 [2]: > 260 µM (inactive)

SMILES: c1ccc(C2(CN3CCNC[C@H]3Cc3cccc4ccccc34)CC2)cc1
- IC50 [4]: > 20 µM (inactive)

SMILES: O=[N+]([O-])c1ccc(/C=N/c2ccc(Cl)cc2Cl)s1
- AC50 (Cytochrome P450 2C9): 2.24 µM (inconclusive)
- AC50 [5]: 7.83 µM (active)

SMILES: COc1ccc(NC(=O)c2sccc2SCc2cccc(C(F)(F)F)c2)cc1
- EC50 [6]: 2.61 µM (active)
- EC50 [7]: > 60 µM (not active)
- EC50 [2]: > 260 µM (inactive)

SMILES: CCCCCCC(=O)N(O)C1CC(=O)N(c2ccc(C)cc2)C1=O (configuration not stated)
- IC50 [8]: > 66 µM (inactive)
- IC50 [9]: > 66 µM (inactive)
- AC50 [5]: 1.43 µM (active)
